Results on 14 molecules are retold here after patent publication US6692927B2, “Bax degradation involvement in tumor survival and progression” (University of South Florida, priority 2000, dated 2004).

Where a SMILES comes first, the peptide text is derived from it. [ ]: non-standard residue; d: D form. The star is where a group is joined. Nle = CCCC[C@H](N)C(=O)O; Cbz = O=C(OCc1ccccc1)*

The test system of one test is Bax degradation activity. The test is described as follows: cell-free Bax degradation assay, inhibitor added to MCF-7 cell extract. It is filed as biochemical, human. Particulars: 10-minute preincubation of MCF-7 cell extract with inhibitor (100 mM per FIG. 9C legend), 37° C., 4 h. On the procedure: (§1) FIGS. 9A-9F show Bax degradation depends on ubiquitination, proteasome and ATP. (FIG. 9A) Jurkat cells (0 h) were treated with either 50 μM LLnV or 10 μM lactacystin, followed by preparation of Bax immunoprecipitates (with clone 6A7), which were immunoblotted with an ubiquitin antibody. Positions of putative ubiquitinated Bax proteins (p47, p55) are indicated at left. The nature of the ˜30 kDa and ˜84 kDa remains unclear. (FIG. 9B) The [^35S]-labeled Bax (upper) or Bcl-2 (lower) protein (1 μl) were incubated at 37° C. for 2 h with either buffer Z only (lane 1) or […] protein extract of MCF-7 cells grown exponentially (lane 2) or pretreated for 8 h with […] LLnV (lane 3). (FIG. 9C) The [^35S]-labeled Bax protein (1 μl) was incubated with either buffer Z only (lane 1) or 100 μg MCF-7 cell lysate at 37° C. for 4 h, in the presence of an indicated inhibitor (100 mM; lanes 3-8) or an equal volume of DMSO (lane 2) in buffer Z. A weak band of ˜16 kDa (indicated by an arrow) is probably an intermediate product of proteasome-mediated Bax degradation. (FIG. 9D) The proteasome in MCF-7 whole cell lysate (W lys, lane 1) was precipitated by using either ultraspin (ULS) or a proteasome subunit a6 antibody (IP). Both supernatant (lanes 2, 4) and pellet (lanes 3, 5) fractions were examined by Western blot assay using antibody to the proteasome a6 subunit (MW 33 kDa). (FIG. 9E) Bax degradation assay was performed as in FIG. 9B, with addition of buffer Z (lane 1) or 100 μg protein from MCF-7 whole cell lysate (lane 2), ultraspun supernatant (lane 3) or plus the pellet (lane 4), immunodepleted supernatant (lane 5) or plus a purified 20S proteasome ([…]; lane 6), or the purified proteasome alone (2 μg; lane 7). (FIG. 9F) Bax degradation assay was performed as in FIG. 9B, in the absence (lane 3) or presence of 10 mM ATP (lane 2) or 10 mM ATP-y-S (lane 4).
In vitro Bax Degradation Assay: Human Bax-a cDNA subcloned into pcDNA3 was a gift from Dr. Hong-gang Wang. Human full length of bcl-2-a cDNA was cloned from Jurkat T cells and subcloned into pcDNA3.1(−) as described+. Both bax and bcl-2 plasmids were used for coupled in vitro transcription/translation (Promega; Madison, Wis.) in the presence of [^35S]methionine (Amersham Pharmacia Biotech; Piscataway, N.J.). Protein extracts were prepared from either MCF-7 cells or prostate tumor tissues in buffer Y (50 mM Tris-HCl, pH 7.4, 250 mM NaCl, 1% Triton X-100, 0.1% SDS, 1 mM EDTA), and used for Bax (or Bcl-2) degradation assay. Briefly, 1 microl of [^35S]-labeled Bax (or Bcl-2) protein was incubated at 37° C. for 2-4 hours with 100-200 microg protein extract in buffer Z (50 mM Tris-HCl, pH 7.4, 5 mM MgCl2, 3 mM DTT, 10 mM ATP, 10 mM phosphocreatine, 10 microg/ml creatine phosphokinase, 10 microg/ml aprotinin, 10 microg/ml leupeptin, 10% glycerol and 2 microg/ml ubiquitin). After incubation, the samples were subjected to gel electrophoresis and autoradiography. Under the cell-free assay conditions, the calpain-mediated Bax cleavage activity was blocked by omission of calcium and addition of the protease inhibitor leupeptin (Wood et al, 1998). To deplete the proteasome, MCF-7 cell lysates were either immunoprecipitated with the 20S proteasome subunit a6 antibody or ultracentrifugated at 100,000×g for 6 hours. The proteasome-enriched pellet fraction was resuspended in buffer Y.
To further study the proteasome activity that degrades Bax protein, a cell-free Bax degradation assay was developed by using an in vitro-translated, [^35S]-labeled Bax protein as substrate (FIG. 9B, upper, lane 1). The Bax degradation activity is present in protein extracts prepared from exponentially growing MCF-7 (FIG. 9), K562, VA-13, WI-38, Jurkat T or HL-60 cells. The labeled Bax was almost completely degraded by a MCF-7 cell extract after 2 to 4 hours incubation at 37° C. (FIG. 9B, upper, and FIG. 9C, lanes 2 vs. 1). […]

Test [1] deals with human Jurkat T cells overexpressing Bcl-2 and human prostate, breast, tongue and brain tumor cell lines. The note with it: cited from earlier work; for apoptosis induction / cell kill: low concentrations, same conditions for etoposide.
Test [2] has as its system simian virus 40-transformed and parental normal human fibroblasts. The note with it: but not the parental normal; cited from earlier work.
The test system of another test is Jurkat T cells. The experiment in a line: Western blot and Bax IP/ubiquitin blot in Jurkat T cells. It is filed as cell-based, human. The note with it: 50 microM. On the procedure: FIGS. 8A-8D show proteasome inhibition accumulates Bax to mitochondria/cytoplasm and increases interaction between Bax and Bcl-2 proteins. Jurkat cells (0 h; FIG. 8A and FIG. 8B) or Jurkat cells overexpressing Bcl-2 (0 h; FIG. 8C and FIG. 8D) were treated by either 10 μM lactacystin (FIGS. 8A-8C), 50 μM LLnV (FIG. 8D), or 50 μM LLM (FIG. 8A and FIG. 8B) for the indicated hours. (FIG. 8A and FIG. 8B) Western blotting with antibodies to PARP and Bax were performed as described in FIG. 7. (FIG. 8C) Immunohistochemistry (see MATERIALS AND METHODS). Localization of Bax protein (green) and nuclei (red) are shown. (FIG. 8D) Bax immunoprecipitates, prepared by an agarose-conjugated N-20 Bax antibody, were immunoblotted first with the 6A7 Bax antibody (upper) and then reblotted with a Bcl-2 antibody (lower).
as §1, with “4). […]” for “4).”

The next test deals with normal WI-38 cells. The experiment in a line: PARP cleavage, cytochrome c release, Bax and p21 in normal fibroblasts. It is filed as cell-based, human. The note with it: LLnL at up to 200 microM, 14 hours. From the text:
Proteasome inhibitors activate Bax- and cytochrome c-dependent apoptosis pathway preferentially in transformed human fibroblasts. Normal human fibroblasts are more resistant to proteasome inhibitor-induced apoptosis than transformed and cancer cells (An et al., in press). This is probably due to inability of the normal cells to accumulate Bax protein in response to proteasome inhibition, and consequently failure to release cytochrome c. To test this hypothesis, both SV40-transformed and normal WI-38 cells were treated with 50 microM LLnV for up to 24 hours, followed by measurement of PARP cleavage, cytochrome c release and Bax accumulation. […] In contrast, only after 24 hours treatment, low levels of p85/PARP fragment and cytosolic cytochrome c were detected in normal WI-38 cells (FIGS. 1, A, B, lanes 8-14). […] The levels of Bax/p21 were increased at as early as 4 hours and remained high afterwards. […] The level of another band of ˜47 kDa increased at 4 hours, further increased between 6 and 12 hours, and then decreased (FIG. 1C). The p70 and p47 bands can contain ubiquitinated forms of Bax since similar polypeptides were detected by antibodies to both Bax and ubiquitin (Li et al., 1999). […] Therefore, although unable to activate the Bax- and cytochrome c-dependent apoptotic pathway in response to a low concentration of a proteasome inhibitor, normal cells are capable of undergoing Bax- and cytochrome c-independent apoptosis in response to a proteasome inhibitor at higher concentrations.
SV40-transformed (VA-13) and normal WI-38 cells were treated with 50 microM LLnV or DMSO (letter D) for up to 24 hours, followed by measurement of PARP cleavage (A), cytochrome c release (B) and Bax accumulation (C; also see FIG. 2). Panel D, exponentially grown VA-13 cells were pretreated with 50 microM LLnV or DMSO for 1 hour, washed with methionine-free medium, and then incubated for 30 minutes in methionine-free medium plus 50 microM LLnV (or DMSO). This was followed by replacing fresh methionine-free medium containing 150 microCi/ml of [^35S]-methionine, 10% dialyzed FBS and 50 microM LLnV (or DMSO). Cells were further incubated for 6 hours, followed by preparation of [^35S]-labeled protein lysates and Bax immunoprecipitates (6A7, PharMingen). The labeled Bax bands are indicated. […] Bax-alpha subcloned into pcDNA3 was used for coupled in vitro transcription/translation in the presence of [^35S]methionine. For Bax cleavage assay, the whole cell extracts were prepared. The [^35S]-labeled Bax (0.7 microl) was incubated with 50 microg protein in assay buffer (containing 50 microM LLM and no Ca^2+) for 4 hours at 37° C. Following incubation, the samples were subjected to SDS gel electrophoresis and autoradiography.

Regarding `CC(=O)N[C@@H](CC(C)C)C(=O)N[C@@H](CC(C)C)C(=O)N[C@H](C=O)CCCNC(=N)N` [leupeptin], in the test with Bax degradation activity, the Bax degradation process/activity result is “not inhibited”. Turning to `CC(C)C[C@@H](C=O)NC(=O)[C@H](CCCN=C(N)N[N+](=O)[O-])NC(=O)C(CCCCCCCCN1C(=O)c2ccccc2C1=O)C1CCCC1` (some centres unmarked) [CEP1612], the “cyclin-dependent kinase inhibitors p21 and p27” value in test [1] (associated with CEP1612-induced apoptosis) is “accumulation of the cyclin-dependent kinase inhibitors p21 and p27”. Further, the “apoptosis induction / cell kill” value in test [1] is “rapidly induces apoptosis”. Besides, the “p27 accumulation and apoptosis” value in test [2] is “selectively accumulates p27 and induces apoptosis”.

As to `N=C(N)c1ccccc1` [benzamidine], in the test on Bax degradation activity, the Bax degradation process/activity result is “not inhibited”.

`O=S(=O)(F)Cc1ccccc1` [phenylmethylsulfonyl fluoride]: the Bax degradation process/activity result with Bax degradation activity is “not inhibited”. The same measure, in the same setting: the result for `CC(=O)N[C@@H](Cc1ccc(O)cc1)C(=O)N[C@H](C(=O)N[C@@H](C)C(=O)N[C@@H](CC(=O)O)C(=O)CCl)C(C)C` [acetyl-YVAD-chloromethyl ketone] reads “not inhibited”.

With `CSCCC(C=O)NC(=O)C(CC(C)C)NC(=O)C(CC(C)C)NC(C)=O` (stereo not drawn) [LLM] (Ac-Leu-Leu-Met-aldehyde; configuration not given here), the “Bax accumulation and PARP cleavage” value in the test on Jurkat T cells is given as “had no such effects”. Moreover, the Bax degradation process/activity entry in the test on Bax degradation activity is given as “not”. With `CC(=O)N[C@@H](CC(=O)O)C(=O)N[C@@H](CCC(=O)O)C(=O)N[C@H](C(=O)N[C@@H](CC(=O)O)C(=O)CF)C(C)C` [acetyl-DEVD-fluoromethyl ketone], the Bax degradation process/activity entry with Bax degradation activity is on record as “not inhibited”.

For the molecule `CC(C)[C@H](O)[C@@]12NC(=O)[C@H](C)[C@@H]1OC2=O` [b-lactone, clasto-lactacyctin b-lactone], the Bax degradation process/activity result in the test on Bax degradation activity was “blocked”.

In the case of tosyl-L-lysine chloromethyl ketone, the Bax degradation process/activity result in the test with Bax degradation activity is “not inhibited”.

For aprotinin, the Bax degradation process/activity entry in the test with Bax degradation activity is “not inhibited”. Take `CCCC[C@@H](C=O)NC(=O)[C@H](CC(C)C)NC(=O)[C@H](CC(C)C)NC(C)=O` [LLnL] (Ac-Leu-Leu-[Nle]-aldehyde): in the test on normal WI-38 cells, the “apoptosis as judged by PARP cleavage” value was “underwent apoptosis”; the “cytochrome c release and Bax accumulation” value was “neither release cytochrome c nor accumulate Bax”; the “levels of the cdk inhibitor p21” value is given as “significantly increased”. Moreover, in the test on Bax degradation activity, the Bax degradation process/activity entry is recorded as “blocked”. With `COc1cc([C@@H]2c3cc4c(cc3[C@@H](O[C@@H]3O[C@@H]5CO[C@@H](C)O[C@H]5[C@H](O)[C@H]3O)[C@H]3COC(=O)[C@H]23)OCO4)cc(OC)c1O` [etoposide], the “apoptosis induction / cell kill” value in test [1] is given as “fails to kill these cells”. Regarding `CC(C)C[C@@H](C=O)NC(=O)[C@H](CC(C)C)NC(=O)[C@H](CC(C)C)NC(=O)OCc1ccccc1` [LLL] (Cbz-Leu-Leu-Leu-aldehyde), the Bax degradation process/activity result in the test on Bax degradation activity is listed as “blocked”.

As for `CCN1C(=O)C=CC1=O` [N-ethylmaleimide], the Bax degradation process/activity entry with Bax degradation activity is “not inhibited”.
